Patent US11821001B2, “Cell culture medium for eukaryotic cells” (Regeneron Pharmaceuticals, Inc., priority 2019, dated 2023)

System: titer of VEGFR binding protein 1
Assay: Correlation and regression of component concentration against protein titer of VEGFR binding protein 1
Type: cell-based
Conditions: regression line; for protein titer versus concentration of the component in the cell culture medium: N=70, extrapolated estimation from soy hydrolysate data, FIG. 3 / FIG. 5; for protein titer versus concentration of the component in the soy hydrolysate added to the cell culture medium: N=70, enriched medium (soy hydrolysate), FIG. 2 / FIG. 4
Procedure: The impact of 5-methythioadenosine on production of a recombinant protein (VEGFR binding protein 1) was studied by investigating the protein titer (g/L) at different concentrations of 5-methythioadenosine present in the cell culture medium.
An enriched medium (soy hydrolysate) comprising 5-methythioadenosine was added to the cell culture medium.
Based on the correlation data obtained from studying the effect of 5-methythioadenosine concentrations in the enriched medium (soy hydrolysate) supplemented to the cell culture medium (Example 2, FIG. 2), an estimation as to the optimum concentration of 5-MTA in a cell culture was made.
The impact of nicotinamide on a recombinant protein (VEGFR binding protein 1) titer was also studied by investigating the protein titer (g/L) at different concentrations of nicotinamide present in the cell culture medium.
An enriched medium (soy hydrolysate) comprising nicotinamide was added to the cell culture medium at varying concentrations.
Based on the correlation data obtained from studying the effect of nicotinamide concentration in enriched medium (soy hydrolysate) supplemented to the cell culture medium (Example 4, FIG. 4), an estimation as to the optimum concentration of nicotinamide in a cell culture was made.

SMILES	protein titer versus concentration of the component in the cell culture medium	protein titer versus concentration of the component in the soy hydrolysate added to the cell culture medium
CSC[C@H]1O[C@@H](n2cnc3c(N)ncnc32)[C@H](O)[C@@H]1O [5-methylthioadenosine (MTA), 5-Deoxy-5′-methylthioadenosine]	titer can vary linearly	titer varied linearly
NC(=O)c1cccnc1 [Nicotinamide, 3-Pyridinecarboxamide]	titer can vary linearly	titer varied linearly
